{
  "source": "patent US20020037872A1",
  "about": "“N6 heterocyclic 5' modified adenosine derivatives” (CV Therapeutics, Inc., priority 1999, published 2002)",
  "key": {"A1 receptor [1]": {"biological_target": "T1, A1 receptor (Mesocricetus auratus, UniProt A0A1U8BVR4)", "T1 construct": "endogenous in cells; host or cells: DDT1 (DDT1 MF-2) hamster vas deferens smooth muscle cells", "T1 sequence (A0A1U8BVR4 1-326)": "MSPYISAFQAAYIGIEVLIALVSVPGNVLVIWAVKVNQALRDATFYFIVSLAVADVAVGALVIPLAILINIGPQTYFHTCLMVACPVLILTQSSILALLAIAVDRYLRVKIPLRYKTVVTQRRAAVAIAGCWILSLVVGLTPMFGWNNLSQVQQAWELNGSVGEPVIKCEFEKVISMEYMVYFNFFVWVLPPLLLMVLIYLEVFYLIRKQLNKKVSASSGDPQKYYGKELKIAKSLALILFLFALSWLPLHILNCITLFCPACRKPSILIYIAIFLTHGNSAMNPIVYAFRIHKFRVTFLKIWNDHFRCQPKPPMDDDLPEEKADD", "assay": "Competitive binding assay, DDT1 cell membranes, [3H]CCPA", "parameters": "species or system hamster", "conditions": "[3H]CCPA 2 nM, DDT1 cell membranes; read-out: Ki-DDT1 cell membrane"}, "A1 receptor [2]": {"biological_target": "T2, A1 receptor (Sus scrofa, UniProt I3LEN5)", "T2 sequence (I3LEN5 1-326)": "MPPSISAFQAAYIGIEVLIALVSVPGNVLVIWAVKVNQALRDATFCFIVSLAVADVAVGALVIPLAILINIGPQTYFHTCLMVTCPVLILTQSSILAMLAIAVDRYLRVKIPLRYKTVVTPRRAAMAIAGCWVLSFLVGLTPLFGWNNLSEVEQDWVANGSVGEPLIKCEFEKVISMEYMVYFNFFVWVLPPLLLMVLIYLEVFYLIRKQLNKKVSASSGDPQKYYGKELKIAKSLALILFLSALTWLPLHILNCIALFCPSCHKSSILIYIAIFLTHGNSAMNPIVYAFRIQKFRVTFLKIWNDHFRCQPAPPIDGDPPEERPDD", "assay": "Competitive binding assay, pig striatum membrane prep, [3H]CPX", "conditions": "[3H]CPX 2 nM, pig striatal membranes", "experimental": "Competitive Binding Assay Pig striatum were prepared by homogenation in 50 mM Tris buffer (5× volume of tissue mass pH=7.4). After centrifilgation at 19,000 rpm for 25 minutes at 4° C., the supernatant was discarded, and the process was repeated twice. Compositions of this invention were assayed to determine their affinity for the A1 receptor in a pig striatum membrane prep or a DDT, membrane prep. Briefly, 0.2 mg of pig striatal membranes or DDT, cell membranes were treated with adenosine deaminase and 50 mM Tris buffer (pH=7.4) followed by mixing. To the pig membranes was added 2 μL of serially diluted DMSO stock solution of the compounds of this invention at concentrations ranging from 100 microM to 10 nM. The control received 2 microL of DMSO alone, then the antagonist [^3H] 8-cyclopentylxanthine (CPX) for pig striatum or the agonist [^3H] 2-chloro-6-cyclopentyladenosine (CCPA) for DDT, membranes in Tris buffer (50 mnM, pH of 7.4) was added to achieve a final concentration of 2 nM. After incubation at 23 C for 2 h, the solutions were filtered using a membrane harvester using multiple washing of the membranes (3×). The filter disks were counted in scintillation cocktail affording the amount of displacement of triated CPX or by the competitive binding compositions of this invention. […]"}},
  "data": [
    {"smiles": "CNC(=O)OC[C@H]1O[C@@H](n2cnc3c(N[C@@H]4CCOC4)ncnc32)[C@H](O)[C@@H]1O", "note": "[Compound 6, (5-16[((3R)oxolan-3-yl)aminolpurin-9-yl)(3S,2R,4R,5R)-3,4dihydroxyoxolan-2yl)methoxyl-N-methylearboxamide]", "values": [
      {"measurement": "Ki", "setting": "A1 receptor [1]", "result": 178, "unit": "nM"},
      {"measurement": "Ki", "setting": "A1 receptor [2]", "result": 228, "unit": "nM"}
    ]}
  ]
}
